The record followed here is patent publication US6268397A, “Use of (α-aminomethyl-3,4-dichlorobenzyl) thioacetamide derivatives for inhibiting dopamine reuptake and new compounds for this use” (Laboratoire. L. Lafon, priority 1995, dated 2001).

The test system of series [1] is mice. In words: Toxicity in mice via the i.p. route (LD0, LD100). In kind it is in vivo. The source says: The LD0 and LD100 values in mice via the i.p. route are also given in this table.
Series [2] has as its target T1, site of dopamine reuptake (Rattus norvegicus, UniProt P23977).
T1 construct: The striata are removed immediately and then stored at -80° C. until used; from tissue; host or cells: rat striatum membranes (male CD Sprague-Dawley)
In words: Inhibition of binding at the site of dopamine reuptake in vitro in rat striatum ([3H]mazindol). Also noted: species or system rat (male, CD Sprague-Dawley). To be noted: pH 7.7, mean of three tests. As for the experimental part:
Inhibition Of Binding At the Site of Dopamine Reuptake In Vitro In Rat Striatum
Rats, (male, CD Sprague-Dawley, 200-250 g) are sacrificed by decapitation. The striata are removed immediately and then stored at -80° C. until used. On the day of the manipulation, the striata are thawed, coated with buffer and then brought into suspension. This suspension is then poured into the centrifuge tubes, made up to 10 ml with pH 7.7 buffer (50 mM Tris (HCl), 120 mM NaCl, 5 mM KCl) and thereafter centrifuged at 20,000 rpm for 15 minutes. The pellet is resuspended in 10 ml of buffer and is then subjected to a second centrifugation (20,000 rpm for 15 minutes). The above procedure is repeated, so that the homogenate undergoes a third centrifugation identical to the previous two. The pellet thereby obtained is suspended in a few ml of buffer and then homogenized. The membrane suspension is then diluted in a requisite volume. Increasing concentrations of the test compounds dissolved in the buffer are distributed. Aliquots of the membrane suspension are then added. The radioactive ligand ([^3 H]mazindol), used as a label of the type of site studied, is then distributed manually in the tubes, which are thereafter incubated (final volume 1 ml).
The reaction is stopped by filtration through a Harvester system (Whatman GF/B filter strip). The filter strip is then washed three times with 5 ml of buffer before being placed in an automatic cutting system.
The cut filters fall into counting vials, and 4 ml of scintillation fluid are distributed automatically by the system. Each sample is subjected to counting of the radioactivity using a liquid scintillation counter.
Three series of tests (test 1, test 2 and test 3) are carried out with each compound for determination of the IC50, each determination being carried out on two different samples.
The specific binding is defined as the difference between the total binding and the non-specific binding (displace by an excess of non-radioactive ligand). The values obtained in counts per minute (cpm) are then converted into disintegrations per minute (dpm) in accordance with the efficiency of the counter.
The IC50 is defined as the concentration of the substance under study needed to displace 50% of the specifically bound radioactive label.
The experimental data emanating from the liquid scintillation counter (Kontron) are stored on diskette, managed by a program (Convert) and then analysed by means of Ligand* software, which calculates the 50% inhibitory concentration (IC50) and the inhibition constant Ki [formula]
where [L] represents the concentration of the radioactive ligand and Kd the dissociation constant of this same ligand. (The values of the IC50 and of Ki are inversely proportional to the affinity of the product under study for the binding site.

For series [3], the system named is mice. In words: Locomotor activity of mice. The following applies: recorded over 30 minutes. In kind it is in vivo, mice (male, NMRI). As for the experimental part:
Effects on the Locomotor Activity of Mice
Half an hour after receiving CRL 41 789 or CRL 41 790 intraperitoneally in distilled water, groups of 6 to 24 mice (male, NMRI, C.R.E. Janvier, 18-22 g) are placed individually in crossed-beam activity cages, where their locomotor activity (number of rays crossed) is recorded over 30 minutes.

For series [4], the system named is anaesthetized rat striatum. In words: Extracellular levels of neuro-mediators and metabolites in anaesthetized rat striatum (intracerebral microdialysis). In kind it is in vivo, rat (male, Sprague-Dawley CD). To be noted: doses of 16, 32 or 64 mg/kg i.p.; for 3-methoxytyramine (3MT) concentration in the dialysate / dopamine concentration in the dialysate: hydrochloride. As for the experimental part:
Effect On The Extracellular Levels Of Neuro-Mediators And Metabolites In Anaesthetized Rat Striatum (Intracerebral Microdialysis)
This determination is obtained by high performance liquid chromatography coupled with and electro-chemical detection.
HPLC: Spherisorb cartridge, ODS-2 (5 μm), L=[…], =4 mm, Merck. Mobile phase: 0.1 M potassium phosphate, 0.1 M citric acid, octane-sulphonic acid 50 mg/l, 0.1 mM EDTA, 4% methanol, ph 4.80 , pump output 0.9 ml/min
electrochemical detection: BAS detector, LC-4C, +750 mV
analyser: Millenium, Waters
Rats (male, Sprague-Dawley CD, Charles River, 280-300 g) anaesthetized with chloral hydrate (400 mg/kg, i.p.) are placed in a stereotactic apparatus. The micro-dialysis probe (CMA/11 L=3 mm, =0.24 mm, Carnegie) is implanted according to the coordinates of the Paxinos and Watson atlas in the anterior portion of the left striatum: I=10, L=2.4, H=-6.1.
Ringer's fluid (CaCl2 =2.4 mM, KCl=4 mM, NaCl=147 mM) is perfused at 2 μl/min into the probe. The dialysates collected every 20 minutes are cooled (to approximately 6° C.) and then analysed.
After one hour of collection, groups of 6 rats receive intraperitoneally in a volume of 5 ml/kg:
either an injection of isotonic sodium chloride solution,
or the test compound dissolved in distilled water at doses of 16, 32 or 64 mg/kg.
In the dialysate, the dopamine (DA), 3,4-dihydroxyphenylacetic acid (DOPAC), homovanillic acid (HVA) and 3-methoxytyramine (3MT) concentrations are measured by electrochemical detection and quantified with respect to a standard series, and are corrected in accordance with the efficiency of the probe determined in vitro before each test.
Only tests in which the probes display an efficiency of more than 5% are taken into account.

The test system of series [5] is mice. In words: Test of "behavioural despair" in mice. In kind it is in vivo, mice (male, CD1). The text has this:
Effects on the Test of "Behavioural Despair"in Mice
Half an hour after receiving CRL 41 789 or CRL 41 790 intraperitoneally in distilled water, groups of 6 or 12 mice (male, CD1, Charles River, 18-22 g) are placed individually in a high vessel made of transparent glass, filled with water to a height of 6 cm. The total period of immobility between the beginning of the 3rd minute and the end of the 6th minute following immersion of the animal is noted.

A short description of series [6]: Solubility of the product. In kind it is physicochemical.
For series [7], the system named is rats. In words: Induction of stereotyped movements in rats. To be noted: i.p. In kind it is in vivo, rat (male, CD, Sprague-Dawley). As for the experimental part:
Induction of Stereotyped Movements in Rats
Groups of 6 rats (male, CD, Sprague-Dawley, Charles River, 160-200 g) receive CRL 41 789 or CRL 41 790 intraperitoneally in distilled water (5 ml/kg), and are immediately place in Flexiglas cages (20×10×10cm). The stereotyped movements are scored from 0 to 3 every 10 minutes until they have disappeared.

The mark [8] stands for this setting: Inhibition of binding at the site of dopamine reuptake IC50, rat striatum.
Setting [9] is: Inhibition of binding at the site of dopamine reuptake Ki, rat striatum.
The mark [10] stands for this setting: rat striatum, read-out: Inhibition of binding at the site of dopamine reuptake IC50.
Where [11] appears, read: rat striatum, read-out: Inhibition of binding at the site of dopamine reuptake Ki.

Structures can show the parent of a compound that is named as a salt. Where two headings read alike, the source gives them in different places.

T1 sequence (P23977 whole entry): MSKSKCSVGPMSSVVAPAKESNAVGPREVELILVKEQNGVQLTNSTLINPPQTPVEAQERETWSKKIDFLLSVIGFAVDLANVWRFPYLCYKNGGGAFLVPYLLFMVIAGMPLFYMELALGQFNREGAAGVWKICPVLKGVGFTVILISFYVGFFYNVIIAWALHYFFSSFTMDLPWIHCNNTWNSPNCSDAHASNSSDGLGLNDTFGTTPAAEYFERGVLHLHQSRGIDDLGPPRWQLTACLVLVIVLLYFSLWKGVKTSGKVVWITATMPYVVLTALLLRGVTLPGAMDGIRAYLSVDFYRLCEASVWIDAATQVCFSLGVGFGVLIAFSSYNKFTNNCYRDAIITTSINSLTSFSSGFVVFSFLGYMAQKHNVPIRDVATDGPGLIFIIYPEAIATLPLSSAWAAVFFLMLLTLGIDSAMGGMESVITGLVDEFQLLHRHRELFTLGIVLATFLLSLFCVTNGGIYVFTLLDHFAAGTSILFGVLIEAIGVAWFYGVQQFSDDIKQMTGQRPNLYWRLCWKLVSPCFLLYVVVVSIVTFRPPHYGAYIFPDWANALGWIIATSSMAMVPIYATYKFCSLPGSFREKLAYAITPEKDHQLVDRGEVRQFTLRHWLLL

For the compound `CC(C)(C)NCC(SCC(N)=O)c1ccc(Cl)c(Cl)c1` (racemic) [CRL 41 414, [α-(tert-butylaminomethyl)-3,4-dichlorobenzyl]thioacetamide], in series [1], the LD0 is 128 mg/kg and the LD100 is on record as 256 mg/kg. The compound also gave an IC50 in series [2] (setting [8]) of 0.031 µM. This compound registered a Ki in series [2] (setting [9]) of 0.063 µM.

With `CC(C)(C)NCC(SCC(N)=O)c1ccc(Cl)c(Cl)c1` (single isomer, unassigned) [CRL 41 789, 1(-)-[α-(tert-butylaminomethyl)-3,4-dichlorobenzyl]thioacetamide hydrochloride], in series [3] (i.p., 2, 8 and 32 mg/kg), the locomotor activity result is “marked and statistically significant increase in the locomotor activity of the mice is observed, the increase rising with the dose”. For the same compound, in series [4], the “DOPAC concentration in the dialysate” value is given as “without modification”, the “HVA concentration in the dialysate” value is “without modification”, the “3-methoxytyramine (3MT) concentration in the dialysate” value is “significant increase” and the “dopamine concentration in the dialysate” value is recorded as “significant increase”. Also, the period of immobility entry in series [5] (i.p., 0.5, 2, 8 and 32 mg/kg) is reported as “a decrease in the period of immobility is observed, the decrease rising with the dose”. Moreover, the “period of immobility, significance of the effect” value in series [5] (i.p., 8 and 32 mg/kg) was “marked and statistically significant”. In series [1] (hydrochloride), this compound yielded an LD0 of 64 mg/kg and an LD100 of 256 mg/kg. In addition, in series [6], the solubility in ethanol entry was “soluble”, the solubility in ether result is recorded as “insoluble”, the “solubility in ethyl acetate” value is reported as “insoluble” and the solubility in water result is reported as “soluble”. Moreover, in series [2] (setting [10]), the IC50 is 0.044 µM. In addition, the Ki in series [2] (setting [11]) stood at 0.024 µM. Further, the stereotyped movements result in series [7] (16 and 32 mg/kg) was “appearance of intense and lasting stereotyped movements”.

Turning to `CC(C)(C)NCC(SCC(N)=O)c1ccc(Cl)c(Cl)c1` (single isomer, unassigned) [CRL 41 790, d(+)-[α-(tert-butylaminomethyl)-3,4-dichlorobenzyl]thioacetamide hydrochloride], in series [3] (i.p., even at 64 mg/kg), the locomotor activity result was “does not give rise to any increase in the locomotor activity”. For the same compound, in series [4], the “3-methoxytyramine (3MT) concentration in the dialysate” value is recorded as “does not cause any modification” and the “dopamine concentration in the dialysate” value was “does not cause any modification”. Further, the period of immobility result in series [5] (i.p., even at the high dose of 64 mg/kg) is on record as “does not give rise to any decrease in the period of immobility”. In series [1] (hydrochloride), this compound gave an LD0 of 128 mg/kg and an LD100 of 512 mg/kg. In series [6], the solubility in ethanol entry is reported as “soluble”, the solubility in ether result is on record as “insoluble”, the “solubility in ethyl acetate” value is “insoluble” and the solubility in methanol entry is “soluble”. Also, the solubility in water result in series [6] is recorded as “soluble”. Also, the IC50 in series [2] (setting [10]) came out at 1.1 µM. Besides, in series [2] (setting [11]), the Ki turned out to be 0.62 µM. For the same compound, the stereotyped movements entry in series [7] (even at the high dose of 128 mg/kg) is given as “does not cause the appearance of any stereotyped movement”.

In series [1], `CCC(C)(C)NCC(SCC(N)=O)c1ccc(Cl)c(Cl)c1` (stereo not drawn) [CRL 42 059, [α-(tert-amylaminomethyl)-3,4-dichlorobenzyl]thioacetamide hydrochloride] had an LD0 of 30 mg/kg and an LD100 of 256 mg/kg. Further, the solubility in alcohols result in series [6] (alcohols) was “soluble”. In series [6], the solubility in ether entry is “insoluble”, the “solubility in ethyl acetate” value is reported as “insoluble” and the solubility in water entry is recorded as “soluble”. Further, the IC50 in series [2] (setting [8]) was found to be 0.074 µM. This compound displayed a Ki in series [2] (setting [9]) of 0.046 µM.

In series [1], `NC(=O)CSC(CNC12CC3CC(CC(C3)C1)C2)c1ccc(Cl)c(Cl)c1` (stereo not drawn) [CRL 42 060, [α-(1-adamantylaminomethyl)-3,4-dichlorobenzyl]thioacetamide hemifumarate] gave an LD0 of 128 mg/kg and an LD100 of 1024 mg/kg. For the same compound, in series [6] (DMSO), the “solubility in DMSO” value is “soluble”. In series [6], the solubility in ether entry is reported as “insoluble”, the “solubility in ethyl acetate” value is given as “insoluble”, the solubility in methanol result is on record as “soluble” and the solubility in water result is given as “insoluble”. In series [2] (setting [8]), this compound came in with an IC50 of 0.04 µM. For the same compound, the affinity in series [2] (setting [9]), expressed as Ki, was 0.044 µM.
